# Patent US6855730B2, “3-methylidenyl-2-indolinone modulators of protein kinase” (Sugen, Inc., priority 1998, dated 2005)
# Where a name gives a salt, the structure may show the parent alone.
# What was measured:
# [1] = target: T1, PDGFR-β (Homo sapiens, UniProt P09619); assay: Biochemical PDGFR assay (ELISA, PDGFR-β expressing NIH 3T3 cell lysate); settings: read-out: bio PDGF IC50
# T1 construct: host or cells: NIH 3T3
# Outline: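 PDGFR-β from NIH 3T3 cell lysate captured on anti-PDGFR (28D4C10)-coated plates; compound preincubated 30 min, then 20 μM ATP kinase reaction 30 min at room temperature, stopped with EDTA. Phosphotyrosine detected by anti-phosphotyrosine antibody, peroxidase conjugate and ABTS/H2O2, read at 410 nm.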
# [2] = target: Myc-GyrB-FGFR fusion protein (Homo sapiens, UniProt P11362); assay: Biochemical FGFR assay (ELISA); settings: read-out: bio fgfR1 IC50
# Chain of Myc-GyrB-FGFR fusion protein (P11362 478-767 limits assumed): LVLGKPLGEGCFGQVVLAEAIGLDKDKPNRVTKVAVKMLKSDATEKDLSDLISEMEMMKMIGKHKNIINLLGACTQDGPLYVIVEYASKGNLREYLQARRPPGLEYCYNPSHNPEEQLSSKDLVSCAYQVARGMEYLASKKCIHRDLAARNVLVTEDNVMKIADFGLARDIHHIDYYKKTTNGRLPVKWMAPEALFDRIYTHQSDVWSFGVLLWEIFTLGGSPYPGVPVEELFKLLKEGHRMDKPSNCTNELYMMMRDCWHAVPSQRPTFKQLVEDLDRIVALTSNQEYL
# [3] = target: T2, flkGST (Homo sapiens, UniProt P35968); assay: bio flkGST assay; type: biochemical
# T2 construct: GST
# T2 sequence (P35968 786-1356 limits assumed): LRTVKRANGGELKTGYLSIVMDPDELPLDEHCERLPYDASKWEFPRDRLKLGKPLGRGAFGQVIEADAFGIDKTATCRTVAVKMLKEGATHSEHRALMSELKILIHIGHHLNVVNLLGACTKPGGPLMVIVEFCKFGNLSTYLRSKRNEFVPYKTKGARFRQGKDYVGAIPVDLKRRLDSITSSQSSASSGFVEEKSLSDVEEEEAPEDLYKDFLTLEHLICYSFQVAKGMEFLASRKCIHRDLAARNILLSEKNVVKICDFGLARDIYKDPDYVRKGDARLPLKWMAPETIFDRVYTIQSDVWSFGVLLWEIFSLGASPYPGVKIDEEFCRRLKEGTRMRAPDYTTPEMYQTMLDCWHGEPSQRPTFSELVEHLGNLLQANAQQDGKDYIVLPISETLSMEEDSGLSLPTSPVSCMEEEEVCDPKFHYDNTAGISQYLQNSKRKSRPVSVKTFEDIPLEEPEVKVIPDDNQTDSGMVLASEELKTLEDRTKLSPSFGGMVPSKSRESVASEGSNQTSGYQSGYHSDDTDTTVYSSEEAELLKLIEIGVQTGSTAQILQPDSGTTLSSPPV
# [4] = target: T3, src protein kinase (Gallus gallus, UniProt P00523); assay: Biochemical SRC assay (phosphorylation of biotinylated peptide); settings: read-out: bio src IC50
# T3 construct: host or cells: Schizosaccharomyces pombe SP200
# T1 sequence (P09619 33-1106): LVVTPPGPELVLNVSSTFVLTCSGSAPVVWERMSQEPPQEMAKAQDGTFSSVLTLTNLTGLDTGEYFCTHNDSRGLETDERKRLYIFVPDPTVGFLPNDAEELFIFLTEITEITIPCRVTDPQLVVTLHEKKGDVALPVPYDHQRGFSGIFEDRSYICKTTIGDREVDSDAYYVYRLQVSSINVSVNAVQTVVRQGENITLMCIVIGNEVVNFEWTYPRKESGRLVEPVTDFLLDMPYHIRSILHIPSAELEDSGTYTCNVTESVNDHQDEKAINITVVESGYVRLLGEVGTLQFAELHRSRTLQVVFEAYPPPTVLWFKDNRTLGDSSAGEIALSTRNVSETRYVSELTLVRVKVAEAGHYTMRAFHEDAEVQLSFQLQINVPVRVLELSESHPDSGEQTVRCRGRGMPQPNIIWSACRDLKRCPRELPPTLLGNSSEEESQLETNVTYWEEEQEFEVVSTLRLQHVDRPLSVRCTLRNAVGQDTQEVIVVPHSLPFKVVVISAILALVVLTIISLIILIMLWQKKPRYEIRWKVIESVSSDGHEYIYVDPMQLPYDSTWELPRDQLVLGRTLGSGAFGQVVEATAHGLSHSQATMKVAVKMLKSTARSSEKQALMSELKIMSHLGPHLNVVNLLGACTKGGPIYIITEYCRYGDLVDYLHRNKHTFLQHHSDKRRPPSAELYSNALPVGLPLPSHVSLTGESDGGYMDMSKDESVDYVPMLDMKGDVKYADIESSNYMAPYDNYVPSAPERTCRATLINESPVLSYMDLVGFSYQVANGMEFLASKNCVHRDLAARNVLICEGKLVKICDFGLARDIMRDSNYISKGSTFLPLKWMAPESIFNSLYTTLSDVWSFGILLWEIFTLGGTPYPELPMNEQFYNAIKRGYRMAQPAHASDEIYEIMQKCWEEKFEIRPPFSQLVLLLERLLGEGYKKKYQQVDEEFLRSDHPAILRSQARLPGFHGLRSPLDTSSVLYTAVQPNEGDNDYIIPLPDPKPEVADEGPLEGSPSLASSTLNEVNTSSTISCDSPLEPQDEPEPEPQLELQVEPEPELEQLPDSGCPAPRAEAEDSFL
IC50 [1] [µM],IC50 [2] [µM],IC50 [3] [µM],IC50 [4] [µM],SMILES
2.79,> 20,2.68,–,"COc1ccccc1-c1ccc2c(c1)NC(=O)/C2=C\c1[nH]c(C)cc1CCC(=O)O [Example 109, 3-{2-[6-(2-Methoxyphenyl)-2-oxo-1,2-dihydroindol-3-ylidenemethyl]-5-methyl-1H-pyrrol-3-yl}-propionic acid]"
8.32,3.6,–,0.15,"Cc1c(/C=C2\C(=O)Nc3ccc(C(=O)O)cc32)[nH]c2ccccc12 [Example 156, 3-(3-Methyl-1H-indol-2-ylmethylene)-2-oxo-2,3-dihydro-1H-indole-5-carboxylic acid (piperidine salt)]"
3.15,17.5,3.05,–,"CCOC(=O)c1c(C)[nH]c(/C=C2\C(=O)Nc3cc(-c4ccccc4OC)ccc32)c1CCC(=O)O [Example 110, 4-(2-Carboxyethyl)-5-[6-(2-methoxyphenyl)-2-oxo-1,2-dihydro-indol-3-ylidenemethyl]-2-methyl-1H-pyrrol-3-yl-carboxylic acid ethyl ester]"
> 100,> 20,–,> 100,"CNS(=O)(=O)c1ccc2c(c1)C(=Cc1[nH]c3ccccc3c1C)C(=O)N2 (racemic) [Example 154, 3-(3-Methyl-1H-indol-2-ylmethylene)-2-oxo-2,3-dihydro-1H-indole-5-sulfonic acid methylamide]"
48.7,> 20,–,–,"O=C1Nc2ccc(Br)cc2/C1=C/c1cc2ccccc2[nH]1 [Example 165, 5-Bromo-3-(1H-indol-2-ylmethylene)-1,3-dihydro-indol-2-one]"
2.97,2.57,1.08,–,"CCOC(=O)c1c(C)[nH]c(/C=C2\C(=O)Nc3cc(-c4ccc(F)cc4)ccc32)c1CCC(=O)O [Example 108, 4-(2-Carboxyethyl)-5-[6-(4-fluorophenyl)-2-oxo-1,2-dihydro-indol-3-ylidenemethyl]-2-methyl-1H-pyrrole-3-carboxylic acid ethyl ester]"
> 100,> 20,–,–,"Cc1cccc2c1/C(=C/c1cc3ccccc3[nH]1)C(=O)N2 [Example 166, 3-(1H-indol-2-ylmethylene)-4-methyl-1,3-dihydro-indol-2-one]"
< 0.78,6.16,2.15,–,"Cc1cc(CCC(=O)O)c(/C=C2\C(=O)Nc3cc(-c4ccc(F)cc4)ccc32)[nH]1 [Example 107, 3-{2-[6-(4-Fluorophenyl)-2-oxo-1,2-dihydroindol-3-ylidenemethyl]-5-methyl-1H-pyrrol-3-yl}propionic acid]"
0.01,0.47,0.43,–,"Cc1cc(CCC(=O)O)c(/C=C2\C(=O)Nc3ccc(Cl)cc32)[nH]1 [Example 111, 3-[2-(5-Chloro-2-oxo-1,2-dihydroindol-3-ylidenemethyl)-5-methyl-1H-pyrrol-3-yl]propionic acid]"
> 100,–,24.1,–,"COc1ccc(/C=C2/C(=O)Nc3ccc(F)cc32)cc1C1CCCC1 [Example 11, 3-(3-Cyclopentyl-4-methoxybenzylidene)-5-fluoro-1,3-dihydroindol-2-one]"
> 100,–,–,–,"CCOc1cccc(-c2cc(OC)c(OC)cc2/C=C2/C(=O)Nc3ccccc32)c1 [Example 58, 3-(3′-Ethoxy-4,5-dimethoxybiphenyl-2-ylmethylene)-1,3-dihydroindol-2-one]"
